Reference: US20050070508A1, “Napthalene carboxamides and their derivatives useful as new anti-angiogenic agents” (AGOURON PHARMACEUTICALS, INC., priority 2003, published 2005)

Experiments:
[1] = test system: human umbilical vein endothelial cells (HUVEC); assay: HUVEC+VEGF Proliferation Assay; format: cell-based; conditions: VEGF-stimulated proliferation, final VEGF 6 ng/mL, 72 hours, MTT dye reduction
Method: This assay determines the ability of a test compound to inhibit the growth factor-stimulated proliferation of human umbilical vein endothelial cells (“HUVEC”). HUVEC cells (passage 3-4, Clonetics, Corp.) were thawed into EGM2 culture medium (Clonetics Corp) in T75 flasks. Fresh EGM2 medium was added to the flasks 24 hours later. Four or five days later, cells were exposed to another culture medium (F12K medium supplemented with 10% fetal bovine serum (FBS), […] endothelial cell growth supplement (ECGS), and 0.1 mg/mL heparin). Exponentially-growing HUVEC cells were used in experiments thereafter. Ten to twelve thousand HUVEC cells were plated in 96-well dishes in […] of rich, culture medium (described above). The cells were allowed to attach for 24 hours in this medium. The medium was then removed by aspiration and […] of starvation media (F12K+1% FBS) was added to each well. After 24 hours, […] of test agent dissolved in 1% DMSO in starvation medium or this vehicle alone was added into each treatment well; the final DMSO concentration was 0.1%. One hour later, […] of VEGF (30 ng/mL) in starvation media was added to all wells except those containing untreated controls; the final VEGF concentration was 6 ng/mL. Cellular proliferation was quantified 72 hours later by MTT dye reduction, at which time cells were exposed for 4 hours MTT (Promega Corp.). Dye reduction was stopped by addition of a stop solution (Promega Corp.) and absorbance at 595 nm was determined on a 96-well spectrophotometer plate reader.

[2] = target: T1, human vascular endothelial growth factor receptor 2 (VEGF-R2) (Homo sapiens, UniProt P35968, DEL940-989/E990V); assay: VEGF-R2 coupled spectrophotometric assay (FLVK); format: biochemical; conditions: unphosphorylated VEGF-R2D50 (FLVK)
T1 construct: VEGF-R2D50 contains residues 806-939 and 990-1171; made in house; host or cells: baculovirus/insect cell system
T1 sequence (P35968 with tags, fused parts or gaps DEL940-989/E990V limits assumed): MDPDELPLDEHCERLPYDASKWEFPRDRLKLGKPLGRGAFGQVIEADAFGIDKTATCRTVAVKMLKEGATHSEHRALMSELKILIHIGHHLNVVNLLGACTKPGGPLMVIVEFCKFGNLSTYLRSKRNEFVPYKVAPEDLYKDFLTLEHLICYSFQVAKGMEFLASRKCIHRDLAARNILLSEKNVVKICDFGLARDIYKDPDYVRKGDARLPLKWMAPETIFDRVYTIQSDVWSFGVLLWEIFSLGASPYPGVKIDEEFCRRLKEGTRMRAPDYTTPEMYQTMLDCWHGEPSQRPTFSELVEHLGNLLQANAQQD
Description: This construct determines the ability of a test compound to inhibit tyrosine kinase activity. A construct (VEGF-R2D50) of the cytosolic domain of human vascular endothelial growth factor receptor 2 (VEGF-R2) lacking the 50 central residues of the 68 residues of the kinase insert domain was expressed in a baculovirus/insect cell system. Of the 1356 residues of full-length VEGF-R2, VEGF-R2D50 contains residues 806-939 and 990-1171, and also one point mutation (E990V) within the kinase insert domain relative to wild-type VEGF-R2. Autophosphorylation of the purified construct was performed by incubation of the enzyme at a concentration of […] in the presence of 3 mM ATP and 40 mM MgCl2 in 100 mM HEPES, pH 7.5, containing 5% glycerol and 5 mM DTT, at 4° C. for 2 h. […] See Parast et al., Biochemistry, 37, 16788-16801 (1998).
The production of ADP from ATP that accompanies phosphoryl transfer was coupled to oxidation of NADH using phosphoenolpyruvate (PEP) and a system having pyruvate kinase (PK) and lactic dehydrogenase (LDH). The oxidation of NADH was monitored by following the decrease of absorbance at 340 nm (e340=6.22 cm^−1 mM^−1) using a Beckman DU 650 spectrophotometer. Assay conditions for phosphorylated VEGF-R2D50 (indicated as FLVK-P in the tables below) were the following: 1 mM PEP; […]; 50 units of LDH/mL; 20 units of PK/mL; 5 mM DTT; 5.1 mM poly(E4Y1); 1 mM ATP; and 25 mM MgCl2 in 200 mM HEPES, pH 7.5. Assay conditions for unphosphorylated VEGF-R2D50 (indicated as FLVK in the tables) were the following: 1 mM PEP; […]; 50 units of LDH/mL; 20 units of PK/mL; 5 mM DTT; 20 mM poly(E4Y1); 3 mM ATP; and 60 mM MgCl2 and 2 mM MnCl2 in 200 mM HEPES, pH 7.5. Assays were initiated with 5 to 40 nM of enzyme. Ki values were determined by measuring enzyme activity in the presence of varying concentrations of test compounds. The percent inhibition at 50 nm (% inhibition @ 50 nm) was determined by linear least-squares regression analysis of absorbance as a function of time. The binding inhibitions were fitted to equation as described by Morrison. The data were analyzed using Enzyme Kinetic and Kaleidagraph software.

SMILES | IC50 [1] | Ki [2]
CNC(=O)c1cccc2c(F)c(Oc3ccnc4cc(C(=O)N5CC[C@H](OC)C5)sc34)ccc12 [Example 1, 5-Fluoro-6-[(2-{[(3S)-3-methoxypyrrolidin-1-yl]carbonyl}thieno[3,2-b]pyridin-7-yl)oxy]-N-methyl-1-naphthamide] | < 1 nM | < 1 nM
CNC(=O)c1cccc2c(F)c(Oc3ccnc4cc(C(=O)N(C)C)sc34)ccc12 [Example 2, 7-({1-Fluoro-5-[(methylamino)carbonyl]-2-naphthyl}oxy)-N,N-dimethylthieno[3,2-b]pyridine-2-carboxamide] | < 1 nM | 
CNC(=O)c1cccc2cc(Oc3ccnc4cc(C(=O)N5CC[C@H](OC)C5)sc34)ccc12 [Example 3, 6-[(2-{[(3S)-3-methoxypyrrolidin-1-yl]carbonyl}thieno[3,2-b]pyridin-7-yl)oxy]-N-methyl-1-naphthamide] | < 1 nM | < 1 nM
CNC(=O)c1cccc2cc(Oc3ccnc4cc(C(=O)N(C)C)sc34)ccc12 [Example 4, N,N-Dimethyl-7-({5-[(methylamino)carbonyl]-2-naphthyl}oxy) thieno[3,2-b]pyridine-2-carboxamide] | 1 to 10 nM | < 1 nM
CNC(=O)c1cccc2cc(Oc3ccnc4cc(C(=O)N5CC[C@@H](N(C)C)C5)sc34)ccc12 [Example 5, 6-[(2-{[(3R)-3-(dimethylamino)pyrrolidin-1-yl]carbonyl}thieno[3,2-b]pyridin-7-yl)oxy]-N-methyl-1-naphthamide] | 1 to 10 nM | 1 to 10 nM
CNC(=O)c1cccc2cc(Oc3ccnc4cc(C(=O)N(C)CCN(C)C)sc34)ccc12 [Example 6, N-[2-(Dimethylamino)ethyl]-N-methyl-7-({5-[(methylamino)carbonyl]-2-naphthyl}oxy)thieno[3,2-b]pyridine-2-carboxamide] | > 10 nM | < 1 nM
CNC(=O)c1cccc2cc(Oc3ccnc4cc(C(=O)N(C)CCCN(C)C)sc34)ccc12 [Example 7, N-[3-(Dimethylamino)propyl]-N-methyl-7-({5-[(methylamino)carbonyl]-2-naphthyl}oxy)thieno[3,2-b]pyridine-2-carboxamide] | > 10 nM | 1 to 10 nM
CNC(=O)c1cccc2cc(Oc3ccnc4cc(C(=O)N(C)CCO)sc34)ccc12 [Example 8, N-(2-Hydroxyethyl)-N-methyl-7-({5-[(methylamino)carbonyl]-2-naphthyl}oxy)thieno[3,2-b]pyridine-2-carboxamide] | > 10 nM | 1 to 10 nM
CN(C)[C@@H]1CCN(C(=O)c2cc3nccc(Oc4ccc5c(C(=O)NC6CC6)cccc5c4)c3s2)C1 [Example 9, N-Cyclopropyl-6-[(2-{[(3R)-3-(dimethylamino)pyrrolidin-1-yl]carbonyl}thieno[3,2-b]pyridin-7-yl)oxy]-1-naphthamide] |  | < 1 nM
CNCC1CCN(C(=O)c2cc3nccc(Oc4ccc5c(C(=O)NC)cccc5c4)c3s2)C1 (stereo not shown) [Example 10, N-Methyl-6-{[2-({3-[(methylamino)methyl]pyrrolidin-1-yl}carbonyl)thieno[3,2-b]pyridin-7-yl]oxy}-1-naphthamide] |  | < 1 nM
COCCNC(=O)c1cccc2cc(Oc3ccnc4cc(C(=O)N5CC[C@@H](N(C)C)C5)sc34)ccc12 [Example 11, 6-[(2-{[(3R)-3-(Dimethylamino)pyrrolidin-1-yl]carbonyl}thieno[3,2-b]pyridin-7-yl)oxy]-N-(2-methoxyethyl)-1-naphthamide] |  | 1 to 10 nM
O=C(NCCN1CCOCC1)c1cccc2cc(Oc3ccnc4cc(C(=O)N5CC[C@@H](O)C5)sc34)ccc12 [Example 13, 6-[(2{[(3R)-3-Hydroxypyrrolidin-1-yl]carbonyl}thieno[3,2-b]pyridin-7-yl)oxy]-N-(2-morpholin-4-ylethyl)-1-naphthamide] | 1 to 10 nM | < 1 nM
Cn1ccnc1-c1cc2nccc(Oc3ccc4c(C(=O)NCCN5CCOCC5)cccc4c3)c2s1 [Example 14, 6-{[2-(1-Methyl-1H-imidazol-2-yl)thieno[3,2-b]pyridin-7-yl]oxy}-N-(2-morpholin-4-ylethyl)-1-naphthamide] | 1 to 10 nM | < 1 nM
O=C(NCCN1CCOCC1)c1cccc2cc(Oc3ccnc4ccsc34)ccc12 [Example 15, N-(2-Morpholin-4-ylethyl)-6-(thieno[3,2-b]pyridin-7-yloxy)-1-naphthamide] | > 10 nM | 1 to 10 nM
Cn1ccnc1-c1cc2nccc(Oc3ccc4c(C(=O)NCCCN5CCOCC5)cccc4c3)c2s1 [Example 30, 6-[2-(1-Methyl-1H-imidazol-2-yl)-thieno[3,2-b]pyridin-7-yloxy]-naphthalene-1-carboxylic acid (3-morpholin-4-yl-propyl)-amide] | < 1 nM | < 1 nM
O=C(NCCN1CCOCC1)c1cccc2cc(Oc3ccnc4cc(C(=O)N5CCC5)sc34)ccc12 [Example 31, 6-[2-(Azetidine-1-carbonyl)-thieno[3,2-b]pyridin-7-yloxy]-naphthalene-1-carboxylic acid (2-morpholin-4-yl-ethyl)-amide] | 1 to 10 nM | < 1 nM
O=C(NCCCN1CCOCC1)c1cccc2cc(Oc3ccnc4cc(C(=O)N5CCC5)sc34)ccc12 [Example 32, 6-[2-(Azetidine-1-carbonyl)-thieno[3,2-b]pyridin-7-yloxy]-naphthalene-1-carboxylic acid (3-morpholin-4-yl-propyl)-amide] | 1 to 10 nM | < 1 nM
O=C(NCCCN1CCCCC1)c1cccc2cc(Oc3ccnc4ccsc34)ccc12 [Example 36, 6-(Thieno[3,2-b]pyridin-7-yloxy)-naphthalene-1-carboxylic acid (3-piperidin-1-yl-propyl)-amide] |  | > 10 nM
O=C(NCCCN1CCCC1)c1cccc2cc(Oc3ccnc4ccsc34)ccc12 [Example 37, 6-(Thieno[3,2-b]pyridin-7-yloxy)-naphthalene-1-carboxylic acid (3-pyrrolidin-1-yl-propyl)-amide] |  | > 10 nM
CN(C)CCNC(=O)c1cccc2cc(Oc3ccnc4ccsc34)ccc12 [Example 41, 6-(Thieno[3,2-b]pyridin-7-yloxy)-naphthalene-1-carboxylic acid (2-dimethylamino-ethyl)-amide] |  | > 10 nM
CNC(=O)c1cccc2cc(Oc3ccnc4cc(O)ccc34)ccc12 [Example 44, 6-(7-Hydroxy-quinolin-4-yloxy)-naphthalene-1-carboxylic Acid Methylamide] |  | > 10 nM
CCCCNC(=O)c1cccc2cc(Oc3ccnc4cc(OC)ccc34)ccc12 [Example 47, 6-(7-Methoxy-quinolin-4-yloxy)-naphthalene-1-carboxylic Acid Butylamide] | > 10 nM | 
CCCCNC(=O)c1cccc2cc(Oc3ccnc4cc(O)ccc34)ccc12 [Example 48, 6-(7-Hydroxy-quinolin-4-yloxy)-naphthalene-1-carboxylic Acid Butylamide] | 1 to 10 nM | 
O=C(NCCN1CCOCC1)c1cccc2cc(Oc3ncnc4ccsc34)ccc12 [Example 52, N-(2-Morpholin-4-ylethyl)-6-(thieno[3,2-d]pyrimidin-4-yloxy)-1-naphthamide] |  | > 10 nM
